According to US9649313B2, “Use of ITK inhibitors for the treatment of cancer” (The University of North Carolina at Chapel Hill, priority 2012, dated 2017):

Target: T1, MST1 (Homo sapiens, UniProt Q13043)
T1 construct: purchased Carna Biosciences
T1 sequence (Q13043 1-487): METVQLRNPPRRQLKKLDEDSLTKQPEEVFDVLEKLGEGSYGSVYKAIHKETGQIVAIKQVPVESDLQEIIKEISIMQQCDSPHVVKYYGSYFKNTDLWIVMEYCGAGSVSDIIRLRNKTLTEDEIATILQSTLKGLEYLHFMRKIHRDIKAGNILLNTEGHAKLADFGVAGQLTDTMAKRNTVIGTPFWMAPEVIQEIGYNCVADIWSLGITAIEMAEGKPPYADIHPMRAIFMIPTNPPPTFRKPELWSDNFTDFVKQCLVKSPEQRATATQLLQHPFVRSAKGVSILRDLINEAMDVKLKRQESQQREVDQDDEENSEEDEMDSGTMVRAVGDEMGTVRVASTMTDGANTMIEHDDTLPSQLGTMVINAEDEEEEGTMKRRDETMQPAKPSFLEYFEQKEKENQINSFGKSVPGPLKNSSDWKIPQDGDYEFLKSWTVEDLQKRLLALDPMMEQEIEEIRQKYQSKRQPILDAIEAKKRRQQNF
Test: cell-free kinase assay
Assay type: biochemical
Description: We investigated the potency and selectivity of BI 10N against 56 kinases using a cell-free assay (Table 8A).
The selectivity of this inhibitor was investigated by testing the potency of the inhibitor at two concentrations with 53 kinases by Carna Biosciences (MA) (Table 2).

C[C@]12O[C@H](C[C@]1(O)C(=O)O)n1c3ccccc3c3c4c(c5c6ccccc6n2c5c31)CNC4=O [K252b]
IC50 (ATP concentration at approximately the Km for ATP): 3.43 nM | IC50 (Table 2, by Carna Biosciences): 3.43 nM
